Read-outs that look alike come from different tables or passages of the source.
Tests used:
CDK1 = target: T1, CDK1 (Homo sapiens, UniProt P06493); experiment: CDK1 in vitro kinase activity, single concentration 1 μM; assay type: biochemical; details: single concentration 1 μM
T1 construct: purchased BPS Bioscience 79597
Experimental: (§1) Kinase activity was assessed using the kinase assay kits from BPS Bioscience for CDK1, CDK9 and CDK12 with Kinase Glo MAX in duplicates. Compounds were tested at a single concentration of 1 μM for CDK1 and CDK9 activity, and in a dilution ranging from 0.64 nM to 50 μM for CDK12 activity. Chemiluminescence was read using the Neo Synergy BioTek plate reader.

[1] = test system: OCI-AML5 and U937 cell lines; experiment: Synergistic interaction assay with THZ531 (Bliss score); assay type: cell-based
Text: 3. It may be worthwhile to investigate whether the CDK12/13 inhibitor THZ531 could synergize with S656 or analogues like UOM-005636 that specifically degrade Cyclin K, in combination cytotoxicity assays, assessing selective suppression of AML viability over normal cells. Both […]
inhibiting CDK12, and S656 / UOM-005636 by degrading Cyclin K. Similar synergistic effects were observed by Katharina et al., where THZ531 promoted prostate ca ncer cell sensitivity to androgen deprivation therapy [Frei, K et. al. Inhibition of the Cyclin K-CDK12 complex induces DNA damage and increases the effect of androgen deprivation therapy in prostate cancer. Int J […]
Indeed, THZ531 is a covalent CDK12/13 inhibitor that specifically binds to the kinase pocket of […]
pocket of CDK12, and that pre-incubation with THZ531 competes with S656-mediated Cyclin K degradation (see Figure 5E).
We performed a synergistic interaction assay between THZ531 and S656 or UOM-005636 in OCI-AML5 and U937 cell lines (see below). […]
interactions between THZ531 and our cyclin K degrader molecules. This is likely due to both drugs competing for the same binding site, rather than acting through complementary pathways. […]

cyclin KeGFP = experiment: Cyclin KeGFP reporter system (eGFP/mCherry MFI by flow cytometry);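 also: 10 μM compound for 3 h relative to DMSO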; assay type: cell-based, H. sapiens; details: cyclin K-eGFP reporter
How it was run: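 Degradation read as eGFP-to-mCherry MFI ratio relative to DMSO controls, from flow cytometry of the selected G7 clone of OCI-AML5 cells transduced with the cyclin KeGFP reporter.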

[2] = test system: OCI-AML5 cells expressing shRNAs targeting CDK1, 2, 4, 7, 9, cyclin K; experiment: Dose response in OCI-AML5 expressing shRNAs targeting CDK1, 2, 4, 7, 9, cyclin K or control; assay type: cell-based, H. sapiens; details: for IC50: Homo sapiens
CDK9/CyclinT = target: T2, CDK9/CyclinT (Homo sapiens, UniProt P50750); experiment: CDK9/CyclinT in vitro kinase activity, single concentration 1 μM; assay type: biochemical; details: single concentration 1 μM
T2 construct: purchased BPS Bioscience 79628
T2 sequence (P50750 whole entry): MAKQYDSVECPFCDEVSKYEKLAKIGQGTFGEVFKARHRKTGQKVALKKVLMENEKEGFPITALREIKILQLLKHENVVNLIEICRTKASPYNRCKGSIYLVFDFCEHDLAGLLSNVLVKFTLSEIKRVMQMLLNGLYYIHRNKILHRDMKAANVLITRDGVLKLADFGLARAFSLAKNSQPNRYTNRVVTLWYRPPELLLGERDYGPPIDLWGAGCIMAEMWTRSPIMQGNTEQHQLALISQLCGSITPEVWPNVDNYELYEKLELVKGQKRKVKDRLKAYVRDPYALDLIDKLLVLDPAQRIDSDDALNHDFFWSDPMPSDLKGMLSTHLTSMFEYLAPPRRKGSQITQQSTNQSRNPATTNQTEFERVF
T2 sequence (O60563 whole entry partner): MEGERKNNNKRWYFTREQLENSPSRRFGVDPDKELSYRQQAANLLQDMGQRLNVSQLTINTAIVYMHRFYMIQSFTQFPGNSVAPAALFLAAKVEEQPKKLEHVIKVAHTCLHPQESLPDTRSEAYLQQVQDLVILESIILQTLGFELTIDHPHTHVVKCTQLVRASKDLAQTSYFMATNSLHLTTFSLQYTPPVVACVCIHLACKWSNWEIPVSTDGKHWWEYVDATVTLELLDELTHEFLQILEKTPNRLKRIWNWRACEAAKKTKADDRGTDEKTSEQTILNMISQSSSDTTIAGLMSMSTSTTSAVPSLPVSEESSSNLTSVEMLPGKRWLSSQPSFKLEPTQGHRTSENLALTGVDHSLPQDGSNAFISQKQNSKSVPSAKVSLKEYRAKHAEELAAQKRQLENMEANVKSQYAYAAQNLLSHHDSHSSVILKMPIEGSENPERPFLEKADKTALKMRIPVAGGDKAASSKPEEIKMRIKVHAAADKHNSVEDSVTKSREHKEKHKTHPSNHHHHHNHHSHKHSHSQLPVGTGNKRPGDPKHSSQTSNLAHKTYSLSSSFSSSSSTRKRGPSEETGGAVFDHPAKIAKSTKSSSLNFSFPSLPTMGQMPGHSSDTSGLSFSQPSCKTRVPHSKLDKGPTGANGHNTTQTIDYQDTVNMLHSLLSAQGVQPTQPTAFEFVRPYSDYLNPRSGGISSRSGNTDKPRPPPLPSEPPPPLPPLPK
Experimental: as §1

primary AML specimens = experiment: Dose-response assays in primary AML specimens (6 days, CellTiterGlo); assay type: cell-based, human; details: Homo sapiens, 144 h, read-out: median IC50 in a panel of 40 primary AMLs, 6 days
Experimental: Freshly thawed primary AML specimens were used for chemical screens. Cryopreserved cells were thawed at 37 °C in IMDM containing 20% FBS and DNase I (100 μg/mL). Cells were resuspended in IMDM supplemented with 15% BIT (BSA, insulin, transferrin; StemCell Technologies), 100 ng/mL SCF, 50 ng/mL FLT3L, 20 ng/mL IL3, 20 ng/mL G-CSF, 10^−4 mol/L b-mercaptoethanol, gentamicin (50 μg/mL), ciprofloxacin (10 μg/mL), SR1 (500 nmol/L) and UM729 (500 nmol/L). Cells were plated in 384-well white plates, 5000 cells per well in 50 μL. Compounds were dissolved in DMSO, diluted in media immediately before use and added to seeded cells at the unique concentration of 1 μM. Control wells received DMSO (0.1%) only. Cell viability was evaluated after 6 days in culture using the CellTiterGlo assay according to the manufacturer’s instruction. Percentage of inhibition for dose response curves was calculated as 100 – (100 × (mean luminescence [compound]/mean luminescence [DMSO])). Dose response curves were generated using nonlinear regression in GraphPad Prism version.
Dose-response assays in primary AML specimens were performed as in chemical screen (see above) with the exception that compounds were tested in serial dilution (8 dilutions, 1:4, 10 μM down to 0.5 nM). Dose-response assays in OCI-AML5 cell line were conducted similarly with the following modifications: 300 cells per well were seeded in 50 μL of cell line media and cell viability was evaluated after 4 days in culture.

[3] = test system: OCI-AML5 cells expressing shRNA targeting CUL4A or CUL4B; experiment: Dose response in OCI-AML5 expressing shRNAs targeting CUL4A, CUL4B or control; assay type: cell-based, H. sapiens; details: ratio of IC50 in shCUL4A vs shCTRL OCI-AML5 cells
OCI-AML5 cells = experiment: Dose-response proliferative assay in OCI-AML5 (4 days, CellTiterGlo); assay type: cell-based, H. sapiens
How it was run: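 Viability assessed after 4 days of compound exposure at 37 °C, 5% CO2. Compounds tested as 8 dilutions (1:4, 10 μM to 0.5 nM) on 300 OCI-AML5 cells/well grown in αMEM with 10% heat-inactivated FBS and 10 ng/mL GM-CSF.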

T1 sequence (P06493 whole entry): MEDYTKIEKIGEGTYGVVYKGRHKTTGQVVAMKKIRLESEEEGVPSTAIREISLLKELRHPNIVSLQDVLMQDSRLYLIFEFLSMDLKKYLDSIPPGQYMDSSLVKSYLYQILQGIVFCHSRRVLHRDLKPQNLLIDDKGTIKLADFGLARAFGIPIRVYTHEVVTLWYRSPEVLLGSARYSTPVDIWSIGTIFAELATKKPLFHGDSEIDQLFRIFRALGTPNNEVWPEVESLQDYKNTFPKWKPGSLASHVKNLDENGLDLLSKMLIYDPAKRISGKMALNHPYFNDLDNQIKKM
T1 sequence (P14635 whole entry partner): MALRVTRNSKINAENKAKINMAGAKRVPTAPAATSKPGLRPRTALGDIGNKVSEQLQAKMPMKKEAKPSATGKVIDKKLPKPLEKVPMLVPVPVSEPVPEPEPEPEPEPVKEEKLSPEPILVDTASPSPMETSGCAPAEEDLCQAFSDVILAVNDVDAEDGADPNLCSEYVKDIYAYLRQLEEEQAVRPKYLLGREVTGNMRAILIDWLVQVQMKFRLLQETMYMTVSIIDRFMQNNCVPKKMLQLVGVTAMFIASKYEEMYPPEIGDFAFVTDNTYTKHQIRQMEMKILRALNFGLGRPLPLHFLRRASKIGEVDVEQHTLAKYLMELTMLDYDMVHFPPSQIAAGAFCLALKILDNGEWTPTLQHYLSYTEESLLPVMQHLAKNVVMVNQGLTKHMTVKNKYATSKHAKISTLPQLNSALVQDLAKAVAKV

O=C(Cc1ccc(-c2ccccn2)cc1)Nc1ncc(SCc2cccnc2)s1 [UOM-005636]
inhibition at 1 µM (CDK1): 69% | synergistic interaction with THZ531 (Bliss score) [1]: moderate to very low synergistic | % degradation cyclin K-eGFP (cyclin KeGFP): 80% | IC50 ([2]; OCI-AML-5, OCI-AML5 expressing shRNA CCNK (cyclin K), read-out: IC50 shRNA CCNK): 21.7 nM | IC50 ([2]; OCI-AML-5, OCI-AML5 expressing shRNA CDK1, read-out: IC50 shRNA CDK1): 112 nM | IC50 ([2]; OCI-AML-5, OCI-AML5 expressing shRNA CDK2, read-out: IC50 shRNA CDK2): 142 nM | IC50 ([2]; OCI-AML-5, OCI-AML5 expressing shRNA CDK4, read-out: IC50 shRNA CDK4): 140 nM | IC50 ([2]; OCI-AML-5, OCI-AML5 expressing shRNA CDK7, read-out: IC50 shRNA CDK7): 140 nM | IC50 ([2]; OCI-AML-5, OCI-AML5 expressing shRNA CDK9, read-out: IC50 shRNA CDK9): 101 nM | class based on cellular selectivity ([2]; IC50 in shRNA OCI-AML5 cells and cyclin KeGFP degradation): Class I (effective cyclin K MGDs (decreased IC50 in cyclin K depleted cells only, and >65% degradation of cyclin KeGFP)) | Class ([2]; class from shRNA IC50 profile and cyclin K-eGFP degradation): 1 | inhibition at 1 µM (CDK9/CyclinT): 57% | IC50 (primary AML specimens): 154 nM | Ratio shCUL4A/shCTRL [3]: 2.3 | IC50 (OCI-AML5 cells; Homo sapiens, OCI-AML-5, 96 h, 4 days incubation, read-out: IC50 OCI-AML5): 85 nM | times more potent than S656 (OCI-AML5 cells; OCI-AML5 cell line and panel of 40 primary AMLs): 8
